One experiment has as its target D(2) dopamine receptor (Rattus norvegicus, UniProt P61169). The experiment is described as follows: biochemical.
The target in experiment [1] is D(3) dopamine receptor (Homo sapiens, UniProt P35462).
Description: Antagonistic activity of quinpirole stimulation of mitogenesis in human Dopamine receptor D3 transfected CHO cells
The target of experiment [2] is D(3) dopamine receptor (Rattus norvegicus, UniProt P19020). The experiment is described as follows: Binding affinity towards rat Dopamine receptor D3 in Sf9 cells expressing in recombinant baculovirus (Bv) using [125I]IABN as radioligand.
Chain of D(3) dopamine receptor (Rattus norvegicus, UniProt P19020) (P19020 whole entry): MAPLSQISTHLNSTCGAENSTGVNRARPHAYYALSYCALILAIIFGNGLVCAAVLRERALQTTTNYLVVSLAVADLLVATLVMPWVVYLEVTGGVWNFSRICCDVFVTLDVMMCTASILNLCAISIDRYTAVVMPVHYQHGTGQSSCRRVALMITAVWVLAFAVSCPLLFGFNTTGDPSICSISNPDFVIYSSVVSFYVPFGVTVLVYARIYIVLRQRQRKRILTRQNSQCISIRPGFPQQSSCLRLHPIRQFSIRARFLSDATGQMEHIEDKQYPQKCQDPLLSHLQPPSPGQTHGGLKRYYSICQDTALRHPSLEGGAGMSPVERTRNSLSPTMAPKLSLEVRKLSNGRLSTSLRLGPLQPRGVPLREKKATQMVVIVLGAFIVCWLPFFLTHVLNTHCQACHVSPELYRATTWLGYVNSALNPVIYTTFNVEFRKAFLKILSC

Drawing on ChEMBL document CHEMBL1136084, “N-(4-[4-(2,3-dichlorophenyl)piperazin-1-yl]butyl, butenyl and butynyl)arylcarboxamides as novel dopamine D(3) receptor antagonists” (Bioorg Med Chem Lett, 2003), this text covers Ki and IC50 for 26 compounds.

SMILES strings stand for the structures.

Usually Ki stands for the equilibrium dissociation constant of an inhibitor or competing ligand from its target. Usually IC50 stands for the concentration at which inhibition is half-maximal.

Chain of D(2) dopamine receptor (P61169 whole entry): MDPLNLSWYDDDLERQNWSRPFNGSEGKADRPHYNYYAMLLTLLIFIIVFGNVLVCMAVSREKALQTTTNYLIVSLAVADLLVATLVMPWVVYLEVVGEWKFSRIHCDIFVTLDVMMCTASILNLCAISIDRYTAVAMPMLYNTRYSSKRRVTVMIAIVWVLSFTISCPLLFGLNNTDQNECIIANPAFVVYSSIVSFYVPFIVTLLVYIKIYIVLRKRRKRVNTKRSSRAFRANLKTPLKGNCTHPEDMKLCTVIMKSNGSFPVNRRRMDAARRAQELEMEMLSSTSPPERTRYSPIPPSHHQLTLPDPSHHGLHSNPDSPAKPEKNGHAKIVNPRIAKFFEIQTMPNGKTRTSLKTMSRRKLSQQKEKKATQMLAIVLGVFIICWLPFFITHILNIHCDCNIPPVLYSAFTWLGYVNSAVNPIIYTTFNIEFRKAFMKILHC
Chain of D(3) dopamine receptor (Homo sapiens, UniProt P35462) (P35462 whole entry): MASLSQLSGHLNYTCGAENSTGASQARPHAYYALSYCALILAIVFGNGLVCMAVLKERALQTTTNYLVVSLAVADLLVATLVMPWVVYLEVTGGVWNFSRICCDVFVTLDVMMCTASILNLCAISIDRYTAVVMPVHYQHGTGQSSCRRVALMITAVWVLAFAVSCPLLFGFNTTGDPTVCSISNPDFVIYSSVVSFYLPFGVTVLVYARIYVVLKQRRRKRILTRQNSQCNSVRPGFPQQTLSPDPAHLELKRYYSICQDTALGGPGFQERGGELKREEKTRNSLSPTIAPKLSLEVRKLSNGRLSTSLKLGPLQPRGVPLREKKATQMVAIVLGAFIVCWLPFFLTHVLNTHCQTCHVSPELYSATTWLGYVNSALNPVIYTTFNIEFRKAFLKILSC

Consider `O=C(NCCCCN1CCN(c2cccc(Cl)c2Cl)CC1)c1cnc2ccccc2n1`, for which the inhibition constant Ki came to 0.109 µM at D(2) dopamine receptor and 0.0019 µM at D(3) dopamine receptor [2]. Moreover, the IC50 at D(3) dopamine receptor [1] was found to be 0.0269 µM.

As for `O=C(NCCCCN1CCN(c2cccc(Cl)c2Cl)CC1)c1ccc2c(c1)Cc1ccccc1-2`, the Ki is 0.911 µM on D(2) dopamine receptor and 0.0011 µM at D(3) dopamine receptor [2].

For `O=C(NCCCCN1CCN(c2cccc(Cl)c2Cl)CC1)c1cccc2c1-c1ccccc1C2=O`, the values for the Ki on D(2) dopamine receptor and at D(3) dopamine receptor [2] were 0.15 µM and 0.0016 µM, respectively.

In the case of `O=C(NCCCCN1CCN(c2cccc(Cl)c2Cl)CC1)c1ccc(I)cc1`, the results for the Ki on D(2) dopamine receptor and on D(3) dopamine receptor [2] were 0.0875 µM and 0.0014 µM, respectively.

For the compound `O=C(NCCCN1CCN(c2ccccc2)CC1)C1c2ccccc2-c2ccccc21`, the Ki on D(2) dopamine receptor stood at 1.02 µM; on D(3) dopamine receptor [2] it was 0.0845 µM.

Consider `O=C(NC/C=C/CN1CCN(c2cccc(Cl)c2Cl)CC1)c1ccc2c(c1)Cc1ccccc1-2`, for which the figures for the Ki on D(2) dopamine receptor and on D(3) dopamine receptor [2] were 0.198 µM and 0.0059 µM, respectively.

As for `O=C(NC/C=C\CN1CCN(c2cccc(Cl)c2Cl)CC1)c1ccc2c(c1)Cc1ccccc1-2`, the Ki on D(2) dopamine receptor turned out to be 0.0873 µM; at D(3) dopamine receptor [2] it was 0.006 µM.

Turning to `O=C(NC/C=C\CN1CCN(c2cccc(Cl)c2Cl)CC1)c1cccc2c1-c1ccccc1C2`, the results for the Ki at D(2) dopamine receptor and at D(3) dopamine receptor [2] were 0.0107 µM and 0.0065 µM, respectively.

On to `O=C(NCCCCN1CCN(c2cccc(Cl)c2Cl)CC1)c1cccc2c1-c1ccccc1C2`, for which the values for the Ki on D(2) dopamine receptor and on D(3) dopamine receptor [2] were 0.134 µM and 0.0045 µM, respectively.

As to `O=C1c2ccccc2C(=O)N1CCCCCN1CCN(c2cccc(Cl)c2Cl)CC1`, the Ki is 0.0864 µM on D(2) dopamine receptor and 0.0056 µM at D(3) dopamine receptor [2].

As to `O=C(NCCCCN1CCN(c2cccc(Cl)c2Cl)CC1)C1c2ccccc2-c2ccccc21`, the Ki was determined as 0.0552 µM on D(2) dopamine receptor and 0.0111 µM on D(3) dopamine receptor [2].

For `O=C(NCCCN1CCN(c2cccc(Cl)c2Cl)CC1)c1cccc2c1-c1ccccc1C2=O`, the Ki on D(2) dopamine receptor worked out at 0.153 µM; on D(3) dopamine receptor [2] it was 0.043 µM.

In the case of `O=C(NCCCN1CCN(c2cccc(Cl)c2Cl)CC1)c1ccc2c(c1)Cc1ccccc1-2`, the Ki on D(2) dopamine receptor is 0.396 µM; on D(3) dopamine receptor [2], 0.199 µM.

As to `O=C(NCCCCCN1CCN(c2cccc(Cl)c2Cl)CC1)c1cccc2c1-c1ccccc1C2=O`, the Ki was found to be 0.0353 µM at D(2) dopamine receptor and 0.002 µM on D(3) dopamine receptor [2].

On to `O=C(NCCCCN1CCN(c2cccc(Cl)c2Cl)CC1)c1cc2cc(F)ccc2[nH]1`, for which, on D(3) dopamine receptor [2], the Ki was determined as 0.0026 µM.

Turning to `O=C(NCCCN1CCN(c2cccc(Cl)c2Cl)CC1)C1c2ccccc2-c2ccccc21`, the Ki at D(2) dopamine receptor is 0.25 µM; on D(3) dopamine receptor [2] it was 0.034 µM.

Take `O=C(NCCCCN1CCN(c2cccc(Cl)c2Cl)CC1)c1ccc(-c2ccccn2)cc1`: the results for the Ki at D(2) dopamine receptor and at D(3) dopamine receptor [2] were 0.0579 µM and 0.0006 µM, respectively.

In the case of `O=C(NC/C=C/CN1CCN(c2cccc(Cl)c2Cl)CC1)c1cccc2c1-c1ccccc1C2`, the Ki stood at 0.106 µM on D(2) dopamine receptor and 0.019 µM on D(3) dopamine receptor [2].

With `O=C1c2ccccc2C(=O)N1CCCCN1CCN(c2cccc(Cl)c2Cl)CC1`, the figures for the Ki at D(2) dopamine receptor and on D(3) dopamine receptor [2] were 0.102 µM and 0.0048 µM, respectively.

As for `O=C(NCCCN1CCN(c2cccc(Cl)c2Cl)CC1)c1cccc2c1-c1ccccc1C2`, the Ki was found to be 0.376 µM at D(2) dopamine receptor and 0.139 µM at D(3) dopamine receptor [2].

In the case of `O=C(NC/C=C/CN1CCN(c2cccc(Cl)c2Cl)CC1)c1ccccc1`, the Ki at D(2) dopamine receptor stood at 0.0501 µM; at D(3) dopamine receptor [2], 0.0013 µM.

As to `O=C(NCC#CCN1CCN(c2cccc(Cl)c2Cl)CC1)c1ccc2c(c1)Cc1ccccc1-2`, the Ki at D(2) dopamine receptor turned out to be 1 µM; on D(3) dopamine receptor [2], 0.214 µM.

Take `O=C(NCC#CCN1CCN(c2cccc(Cl)c2Cl)CC1)c1cccc2c1-c1ccccc1C2`: the Ki on D(2) dopamine receptor was 0.891 µM; on D(3) dopamine receptor [2], 1.08 µM.

Consider `Nc1ccc2c(c1)-c1c(cccc1C(=O)NCCCCN1CCN(c3cccc(Cl)c3Cl)CC1)C2`, for which the Ki was found to be 0.0793 µM on D(2) dopamine receptor and 0.0035 µM at D(3) dopamine receptor [2].

For `O=C(NCC#CCN1CCN(c2cccc(Cl)c2Cl)CC1)c1ccccc1`, the Ki at D(2) dopamine receptor was 1.7 µM; at D(3) dopamine receptor [2], 0.394 µM.

For `O=C(NC/C=C\CN1CCN(c2cccc(Cl)c2Cl)CC1)c1ccccc1`, the figures for the Ki on D(2) dopamine receptor and on D(3) dopamine receptor [2] were 0.02 µM and 0.0049 µM, respectively.
